{"source": "PubChem BioAssay AID1963965", "about": "(Molecular Pharmacology Branch, DTP, NCI, 2024);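 further: spheroids exposed to compounds for seven days before viability read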;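 on viability, T/C: luminescence used as a proxy for viable cell amount; percent viability relative to DMSO vehicle control as 100%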", "tested_on": "996289-038-R-J1-PDC spheroid viability", "experiment": "Anticancer human tumor 996289-038-R-J1-PDC patient-derived colon adenocarcinoma cell line growth inhibition [PI3K]", "settings": "spheroids with HUVEC and MSC; for IC50: curve of first compound; for viability, T/C: stronger effect = lower value", "outline": "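Spheroid viability read-out. Co-cultures contained the tumor line plus HUVEC and human MSCs. Each agent was paired with a PI3K inhibitor (inavolisib, alpelisib, duvelisib, copanlisib) across half-log dilutions starting at clinical Cmax, or at 10 microM when Cmax was unknown.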", "key": {"[1]": {"settings": "second compound 0.0316 µM, first compound 0.0316 µM"}, "[2]": {"settings": "second compound 0.0316 µM, first compound 0.1 µM"}, "[3]": {"settings": "second compound 0.0316 µM, first compound 0.316 µM"}, "[4]": {"settings": "second compound 0.0316 µM, first compound 1 µM"}, "[5]": {"settings": "second compound 0.0316 µM, first compound 3.16 µM"}, "[6]": {"settings": "second compound 0.0316 µM, first compound 10 µM"}, "[7]": {"settings": "second compound 0.1 µM, first compound 0.0316 µM"}, "[8]": {"settings": "second compound 0.1 µM, first compound 0.1 µM"}, "[9]": {"settings": "second compound 0.1 µM, first compound 0.316 µM"}, "[10]": {"settings": "second compound 0.1 µM, first compound 1 µM"}, "[11]": {"settings": "second compound 0.1 µM, first compound 3.16 µM"}, "[12]": {"settings": "second compound 0.1 µM, first compound 10 µM"}, "[13]": {"settings": "second compound 0.316 µM, first compound 0.0316 µM"}, "[14]": {"settings": "second compound 0.316 µM, first compound 0.1 µM"}, "[15]": {"settings": "second compound 0.316 µM, first compound 0.316 µM"}, "[16]": {"settings": "second compound 0.316 µM, first compound 1 µM"}, "[17]": {"settings": "second compound 0.316 µM, first compound 3.16 µM"}, "[18]": {"settings": "second compound 0.316 µM, first compound 10 µM"}, "[19]": {"settings": "second compound 1 µM, first compound 0.0316 µM"}, "[20]": {"settings": "second compound 1 µM, first compound 0.1 µM"}, "[21]": {"settings": "second compound 1 µM, first compound 0.316 µM"}, "[22]": {"settings": "second compound 1 µM, first compound 1 µM"}, "[23]": {"settings": "second compound 1 µM, first compound 3.16 µM"}, "[24]": {"settings": "second compound 1 µM, first compound 10 µM"}, "[25]": {"settings": "second compound 3.16 µM, first compound 0.0316 µM"}, "[26]": {"settings": "second compound 3.16 µM, first compound 0.1 µM"}, "[27]": {"settings": "second compound 3.16 µM, first compound 0.316 µM"}, "[28]": {"settings": "second compound 3.16 µM, first compound 1 µM"}, "[29]": {"settings": "second compound 3.16 µM, first compound 3.16 µM"}, "[30]": {"settings": "second compound 3.16 µM, first compound 10 µM"}, "[31]": {"settings": "second compound 10 µM, first compound 0.0316 µM"}, "[32]": {"settings": "second compound 10 µM, first compound 0.1 µM"}, "[33]": {"settings": "second compound 10 µM, first compound 0.316 µM"}, "[34]": {"settings": "second compound 10 µM, first compound 1 µM"}, "[35]": {"settings": "second compound 10 µM, first compound 3.16 µM"}, "[36]": {"settings": "second compound 10 µM, first compound 10 µM"}}, "data": [{"smiles": "Cn1nccc1Nc1nccc(-c2ccn(C(CO)c3ccc(Cl)c(F)c3)c(=O)c2)n1", "note": "(centres undefined) + Cc1nc(NC(=O)N2CCCC2C(N)=O)sc1-c1ccnc(C(C)(C)C(F)(F)F)c1", "values": [{"measurement": "IC50", "setting": "second compound 0.0316 µM", "value": "> 10", "unit": "µM"}, {"measurement": "IC50", "setting": "second compound 0.1 µM", "value": "> 10", "unit": "µM"}, {"measurement": "IC50", "setting": "second compound 0.316 µM", "value": "> 10", "unit": "µM"}, {"measurement": "IC50", "setting": "second compound 1 µM", "value": 3.53, "unit": "µM"}, {"measurement": "IC50", "setting": "second compound 3.16 µM", "value": 3.56, "unit": "µM"}, {"measurement": "IC50", "setting": "second compound 10 µM", "value": "< 0.0316", "unit": "µM"}, {"measurement": "viability, T/C", "setting": "[1]", "value": 106, "unit": "%"}, {"measurement": "viability, T/C", "setting": "[2]", "value": 114, "unit": "%"}, {"measurement": "viability, T/C", "setting": "[3]", "value": 108, "unit": "%"}, {"measurement": "viability, T/C", "setting": "[4]", "value": 85.8, "unit": "%"}, {"measurement": "viability, T/C", "setting": "[5]", "value": 97, "unit": "%"}, {"measurement": "viability, T/C", "setting": "[6]", "value": 55.2, "unit": "%"}, {"measurement": "viability, T/C", "setting": "[7]", "value": 107, "unit": "%"}, {"measurement": "viability, T/C", "setting": "[8]", "value": 96.8, "unit": "%"}, {"measurement": "viability, T/C", "setting": "[9]", "value": 101, "unit": "%"}, {"measurement": "viability, T/C", "setting": "[10]", "value": 85.6, "unit": "%"}, {"measurement": "viability, T/C", "setting": "[11]", "value": 70.2, "unit": "%"}, {"measurement": "viability, T/C", "setting": "[12]", "value": 52.1, "unit": "%"}, {"measurement": "viability, T/C", "setting": "[13]", "value": 92.5, "unit": "%"}, {"measurement": "viability, T/C", "setting": "[14]", "value": 84.5, "unit": "%"}, {"measurement": "viability, T/C", "setting": "[15]", "value": 101, "unit": "%"}, {"measurement": "viability, T/C", "setting": "[16]", "value": 72.7, "unit": "%"}, {"measurement": "viability, T/C", "setting": "[17]", "value": 61.4, "unit": "%"}, {"measurement": "viability, T/C", "setting": "[18]", "value": 49.5, "unit": "%"}, {"measurement": "viability, T/C", "setting": "[19]", "value": 76.8, "unit": "%"}, {"measurement": "viability, T/C", "setting": "[20]", "value": 90, "unit": "%"}, {"measurement": "viability, T/C", "setting": "[21]", "value": 72.5, "unit": "%"}, {"measurement": "viability, T/C", "setting": "[22]", "value": 62, "unit": "%"}, {"measurement": "viability, T/C", "setting": "[23]", "value": 54.1, "unit": "%"}, {"measurement": "viability, T/C", "setting": "[24]", "value": 38.8, "unit": "%"}, {"measurement": "viability, T/C", "setting": "[25]", "value": 54.8, "unit": "%"}, {"measurement": "viability, T/C", "setting": "[26]", "value": 57.4, "unit": "%"}, {"measurement": "viability, T/C", "setting": "[27]", "value": 63, "unit": "%"}, {"measurement": "viability, T/C", "setting": "[28]", "value": 54.9, "unit": "%"}, {"measurement": "viability, T/C", "setting": "[29]", "value": 52.9, "unit": "%"}, {"measurement": "viability, T/C", "setting": "[30]", "value": 27.1, "unit": "%"}, {"measurement": "viability, T/C", "setting": "[31]", "value": 44.7, "unit": "%"}, {"measurement": "viability, T/C", "setting": "[32]", "value": 40.6, "unit": "%"}, {"measurement": "viability, T/C", "setting": "[33]", "value": 57.9, "unit": "%"}, {"measurement": "viability, T/C", "setting": "[34]", "value": 34.7, "unit": "%"}, {"measurement": "viability, T/C", "setting": "[35]", "value": 29.4, "unit": "%"}, {"measurement": "viability, T/C", "setting": "[36]", "value": 15.7, "unit": "%"}]}, {"smiles": "CC(C)NCC(C(=O)N1CCN(c2ncnc3c2C(C)CC3O)CC1)c1ccc(Cl)cc1", "note": "(centres undefined) + CC(Nc1ncnc2nc[nH]c12)c1cc2cccc(Cl)c2c(=O)n1-c1ccccc1", "values": [{"measurement": "IC50", "setting": "second compound 0.0316 µM", "value": "> 10", "unit": "µM"}, {"measurement": "IC50", "setting": "second compound 0.1 µM", "value": "> 10", "unit": "µM"}, {"measurement": "IC50", "setting": "second compound 0.316 µM", "value": "> 10", "unit": "µM"}, {"measurement": "IC50", "setting": "second compound 1 µM", "value": "> 10", "unit": "µM"}, {"measurement": "IC50", "setting": "second compound 3.16 µM", "value": "> 10", "unit": "µM"}, {"measurement": "IC50", "setting": "second compound 10 µM", "value": "> 10", "unit": "µM"}, {"measurement": "viability, T/C", "setting": "[1]", "value": 86.1, "unit": "%"}, {"measurement": "viability, T/C", "setting": "[2]", "value": 80.3, "unit": "%"}, {"measurement": "viability, T/C", "setting": "[3]", "value": 100, "unit": "%"}, {"measurement": "viability, T/C", "setting": "[4]", "value": 94.1, "unit": "%"}, {"measurement": "viability, T/C", "setting": "[5]", "value": 87.4, "unit": "%"}, {"measurement": "viability, T/C", "setting": "[6]", "value": 75.1, "unit": "%"}, {"measurement": "viability, T/C", "setting": "[7]", "value": 96.5, "unit": "%"}, {"measurement": "viability, T/C", "setting": "[8]", "value": 96.8, "unit": "%"}, {"measurement": "viability, T/C", "setting": "[9]", "value": 89.9, "unit": "%"}, {"measurement": "viability, T/C", "setting": "[10]", "value": 94.7, "unit": "%"}, {"measurement": "viability, T/C", "setting": "[11]", "value": 87.1, "unit": "%"}, {"measurement": "viability, T/C", "setting": "[12]", "value": 69.4, "unit": "%"}, {"measurement": "viability, T/C", "setting": "[13]", "value": 94.9, "unit": "%"}, {"measurement": "viability, T/C", "setting": "[14]", "value": 93.8, "unit": "%"}, {"measurement": "viability, T/C", "setting": "[15]", "value": 95.2, "unit": "%"}, {"measurement": "viability, T/C", "setting": "[16]", "value": 90, "unit": "%"}, {"measurement": "viability, T/C", "setting": "[17]", "value": 92.2, "unit": "%"}, {"measurement": "viability, T/C", "setting": "[18]", "value": 72.3, "unit": "%"}, {"measurement": "viability, T/C", "setting": "[19]", "value": 86.4, "unit": "%"}, {"measurement": "viability, T/C", "setting": "[20]", "value": 92.3, "unit": "%"}, {"measurement": "viability, T/C", "setting": "[21]", "value": 90.8, "unit": "%"}, {"measurement": "viability, T/C", "setting": "[22]", "value": 77.8, "unit": "%"}, {"measurement": "viability, T/C", "setting": "[23]", "value": 101, "unit": "%"}, {"measurement": "viability, T/C", "setting": "[24]", "value": 74.9, "unit": "%"}, {"measurement": "viability, T/C", "setting": "[25]", "value": 88.1, "unit": "%"}, {"measurement": "viability, T/C", "setting": "[26]", "value": 85, "unit": "%"}, {"measurement": "viability, T/C", "setting": "[27]", "value": 85.4, "unit": "%"}, {"measurement": "viability, T/C", "setting": "[28]", "value": 94.7, "unit": "%"}, {"measurement": "viability, T/C", "setting": "[29]", "value": 94.9, "unit": "%"}, {"measurement": "viability, T/C", "setting": "[30]", "value": 68.6, "unit": "%"}, {"measurement": "viability, T/C", "setting": "[31]", "value": 88.8, "unit": "%"}, {"measurement": "viability, T/C", "setting": "[32]", "value": 78.7, "unit": "%"}, {"measurement": "viability, T/C", "setting": "[33]", "value": 85.5, "unit": "%"}, {"measurement": "viability, T/C", "setting": "[34]", "value": 84.2, "unit": "%"}, {"measurement": "viability, T/C", "setting": "[35]", "value": 101, "unit": "%"}, {"measurement": "viability, T/C", "setting": "[36]", "value": 56.2, "unit": "%"}]}]}
